Test results: PubChem BioAssay (NCI)
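Grown in 96-well plates, cells were treated for 48 hours with each compound at five concentrations. Insufficient inhibition: endpoint recorded as highest concentration tested. GI50 = concentration required for 50% inhibition of growth. TGI: total growth inhibition.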

How the values were obtained:
Assay in all cases: DTP human tumour cell line panel, 48 h
HCT-116 colon = system: HCT-116 colon
BT-549 breast = system: BT-549 breast
HOP-92 NSCLC = system: HOP-92 NSCLC
CCRF-CEM leukemia = system: CCRF-CEM leukemia
RXF 393 renal = system: RXF 393 renal
OVCAR-4 ovarian = system: OVCAR-4 ovarian
HL-60(TB) leukemia = system: HL-60(TB) leukemia
SF-295 CNS = system: SF-295 CNS
TK-10 renal = system: TK-10 renal
LOX IMVI melanoma = system: LOX IMVI melanoma
MCF7 breast = system: MCF7 breast
SK-MEL-28 melanoma = system: SK-MEL-28 melanoma
CAKI-1 renal = system: CAKI-1 renal
U251 CNS = system: U251 CNS
NCI-H23 lung = system: NCI-H23 lung
HCC-2998 colon = system: HCC-2998 colon
SK-MEL-2 melanoma = system: SK-MEL-2 melanoma
SW-620 colon = system: SW-620 colon
786-0 renal = system: 786-0 renal
SK-MEL-5 melanoma = system: SK-MEL-5 melanoma
HT29 colon = system: HT29 colon
M14 melanoma = system: M14 melanoma
OVCAR-5 ovarian = system: OVCAR-5 ovarian
SF-539 CNS = system: SF-539 CNS
MDA-MB-435 = system: MDA-MB-435
NCI-H522 lung = system: NCI-H522 lung
COLO 205 colon = system: COLO 205 colon
OVCAR-8 ovarian = system: OVCAR-8 ovarian
SNB-75 CNS = system: SNB-75 CNS
MOLT-4 leukemia = system: MOLT-4 leukemia
RPMI-8226 leukemia = system: RPMI-8226 leukemia
KM12 colon = system: KM12 colon
UO-31 renal = system: UO-31 renal
HS 578T breast = system: HS 578T breast
K-562 leukemia = system: K-562 leukemia
A549 NSCLC = system: A549 NSCLC
SNB-19 CNS = system: SNB-19 CNS
MALME-3M melanoma = system: MALME-3M melanoma
SR leukemia = system: SR leukemia
NCI-H460 lung = system: NCI-H460 lung
OVCAR-3 ovarian = system: OVCAR-3 ovarian
EKVX NSCLC = system: EKVX NSCLC
SF-268 CNS = system: SF-268 CNS
UACC-62 melanoma = system: UACC-62 melanoma
PC-3 prostate = system: PC-3 prostate
A498 renal = system: A498 renal
MDA-MB-231 breast = system: MDA-MB-231 breast
IGROV1 ovarian = system: IGROV1 ovarian
UACC-257 melanoma = system: UACC-257 melanoma
ACHN renal = system: ACHN renal
HOP-62 NSCLC = system: HOP-62 NSCLC
NCI-H226 lung = system: NCI-H226 lung
T-47D breast = system: T-47D breast
SN12C renal = system: SN12C renal
NCI/ADR-RES ovarian = system: NCI/ADR-RES ovarian
HCT-15 colon = system: HCT-15 colon
DU-145 prostate = system: DU-145 prostate

In the case of `CCN(CC)CCCNc1nc2ccccc2c2c(=O)c3cc(Cl)ccc3sc12`, the GI50 (HCT-116 colon) is reported as 1.73 µM, the TGI (HCT-116 colon) is reported as 3.22 µM and the GI50 (BT-549 breast) is reported as 15.8 µM. The TGI (BT-549 breast) was 30.4 µM, the GI50 (HOP-92 NSCLC) was 1.57 µM and the TGI (HOP-92 NSCLC) was 6.58 µM. The GI50 (CCRF-CEM leukemia) was 2.81 µM, the TGI (CCRF-CEM leukemia) was 8.68 µM and the GI50 (RXF 393 renal) was 2.68 µM. It also gave a TGI (RXF 393 renal) of 10.8 µM, a GI50 (OVCAR-4 ovarian) of 4.68 µM and a TGI (OVCAR-4 ovarian) of 22.7 µM. It also gave a GI50 (HL-60(TB) leukemia) of 5.03 µM, a TGI (HL-60(TB) leukemia) of 23.2 µM and a GI50 (SF-295 CNS) of 7.96 µM. For the same compound, the TGI (SF-295 CNS) was 21.9 µM, the GI50 (TK-10 renal) was 2.15 µM and the TGI (TK-10 renal) was 3.97 µM. The GI50 (LOX IMVI melanoma) was 1.65 µM, the TGI (LOX IMVI melanoma) was 3.08 µM and the GI50 (MCF7 breast) was 1.32 µM. The TGI (MCF7 breast) was 2.91 µM, the GI50 (SK-MEL-28 melanoma) was 1.81 µM and the TGI (SK-MEL-28 melanoma) was 3.34 µM. It also gave a GI50 (CAKI-1 renal) of 4.4 µM, a TGI (CAKI-1 renal) of 17.1 µM and a GI50 (U251 CNS) of 2.04 µM. It also gave a TGI (U251 CNS) of 4.92 µM, a GI50 (NCI-H23 lung) of 3.69 µM and a TGI (NCI-H23 lung) of 15.1 µM. It also gave a GI50 (HCC-2998 colon) of 1.91 µM, a TGI (HCC-2998 colon) of 4.01 µM and a GI50 (SK-MEL-2 melanoma) of 10.4 µM. It also gave a TGI (SK-MEL-2 melanoma) of 27.5 µM, a GI50 (SW-620 colon) of 1.77 µM and a TGI (SW-620 colon) of 3.41 µM. The GI50 (786-0 renal) was 1.69 µM, the TGI (786-0 renal) was 3.27 µM and the GI50 (SK-MEL-5 melanoma) was 3.11 µM. It also gave a TGI (SK-MEL-5 melanoma) of 11.3 µM, a GI50 (HT29 colon) of 1.9 µM and a TGI (HT29 colon) of 3.98 µM. For the same compound, the GI50 (M14 melanoma) was 1.94 µM, the TGI (M14 melanoma) was 3.81 µM and the GI50 (OVCAR-5 ovarian) was 2.25 µM. The TGI (OVCAR-5 ovarian) was 6.29 µM, the GI50 (SF-539 CNS) was 1.73 µM and the TGI (SF-539 CNS) was 3.35 µM. The GI50 (MDA-MB-435) was 1.89 µM, the TGI (MDA-MB-435) was 3.65 µM and the GI50 (NCI-H522 lung) was 2.02 µM. It also gave a TGI (NCI-H522 lung) of 4.41 µM, a GI50 (COLO 205 colon) of 2.33 µM and a TGI (COLO 205 colon) of 5.58 µM. The GI50 (OVCAR-8 ovarian) was 3.26 µM, the TGI (OVCAR-8 ovarian) was 15.7 µM and the GI50 (SNB-75 CNS) was 4.36 µM. For the same compound, the TGI (SNB-75 CNS) was 18.3 µM, the GI50 (MOLT-4 leukemia) was 2.22 µM and the TGI (MOLT-4 leukemia) was 4.92 µM. For the same compound, the GI50 (RPMI-8226 leukemia) was 3.2 µM, the TGI (RPMI-8226 leukemia) was 10.1 µM and the GI50 (KM12 colon) was 1.79 µM. It also gave a TGI (KM12 colon) of 3.24 µM, a GI50 (UO-31 renal) of 1.79 µM and a TGI (UO-31 renal) of 9.97 µM. It also gave a GI50 (HS 578T breast) of 3.13 µM, a TGI (HS 578T breast) of 14.8 µM and a GI50 (K-562 leukemia) of 2.29 µM. The TGI (K-562 leukemia) was 5.51 µM, the GI50 (A549 NSCLC) was 2.02 µM and the TGI (A549 NSCLC) was 4.52 µM. For the same compound, the GI50 (SNB-19 CNS) was 6.81 µM, the TGI (SNB-19 CNS) was 20.4 µM and the GI50 (MALME-3M melanoma) was 1.63 µM. It also gave a TGI (MALME-3M melanoma) of 3.26 µM, a GI50 (SR leukemia) of 3.75 µM and a TGI (SR leukemia) of over 100 µM. It also gave a GI50 (NCI-H460 lung) of 1.7 µM, a TGI (NCI-H460 lung) of 3.36 µM and a GI50 (OVCAR-3 ovarian) of 1.92 µM. For the same compound, the TGI (OVCAR-3 ovarian) was 4.15 µM, the GI50 (EKVX NSCLC) was 3.74 µM and the TGI (EKVX NSCLC) was 17.3 µM. For the same compound, the GI50 (SF-268 CNS) was 3.26 µM, the TGI (SF-268 CNS) was 14.3 µM and the GI50 (UACC-62 melanoma) was 1.76 µM. It also gave a TGI (UACC-62 melanoma) of 3.39 µM, a GI50 (PC-3 prostate) of 3.41 µM and a TGI (PC-3 prostate) of 16.7 µM. It also gave a GI50 (A498 renal) of 8.42 µM, a TGI (A498 renal) of 21.4 µM and a GI50 (MDA-MB-231 breast) of 1.45 µM. For the same compound, the TGI (MDA-MB-231 breast) was 3.27 µM, the GI50 (IGROV1 ovarian) was 1.36 µM and the TGI (IGROV1 ovarian) was 3.1 µM. It also gave a GI50 (UACC-257 melanoma) of 5.43 µM, a TGI (UACC-257 melanoma) of 22.5 µM and a GI50 (ACHN renal) of 1.63 µM. It also gave a TGI (ACHN renal) of 3.22 µM, a GI50 (HOP-62 NSCLC) of 3.05 µM and a TGI (HOP-62 NSCLC) of 15.8 µM. The GI50 (NCI-H226 lung) was 10.7 µM, the TGI (NCI-H226 lung) was 25.1 µM and the GI50 (T-47D breast) was 3.85 µM. The TGI (T-47D breast) was 27.7 µM, the GI50 (SN12C renal) was 3.68 µM and the TGI (SN12C renal) was 15.4 µM. The GI50 (NCI/ADR-RES ovarian) was 2.04 µM, the TGI (NCI/ADR-RES ovarian) was 4.99 µM and the GI50 (HCT-15 colon) was 1.61 µM. It also gave a TGI (HCT-15 colon) of 3.14 µM, a GI50 (DU-145 prostate) of 2.01 µM and a TGI (DU-145 prostate) of 4.13 µM.
